Laboratory results: US20080004317A1, “Compounds” (AstraZeneca AB, priority 2004, published 2008)
Converted amounts (≈) assume the structure as drawn.

How the values were obtained:
[1] = molecular target: T1, Recombinant human MMP12 catalytic domain (Homo sapiens, UniProt P39900); test: MMP12 isolated enzyme assay; format: biochemical; conditions: read-out: hMMP12 IC50
T1 construct: Recombinant human MMP12 catalytic domain; made in house
Description: Recombinant human MMP12 catalytic domain may be expressed and purified as described by Parkar A. A. et al, (2000), Protein Expression and Purification, 20, 152. The purified enzyme can be used to monitor inhibitors of activity as follows: MMP12 (50 ng/ml final concentration) is incubated for 60 minutes at room temperature with the synthetic substrate Mca-Pro-Cha-Gly-Nva-His-Ala-Dpa-NH2 (10 μM) in assay buffer (0.1M “Tris-HCl”™ buffer, pH 7.3 containing 0.1M NaCl, 20 mM CaCl2, 0.020 mM ZnCl and 0.05% (w/v) “Brij 35”™ detergent) in the presence (10 concentrations) or absence of inhibitors. Activity is determined by measuring the fluorescence at λex 320 nm and λem 405 nm. Percent inhibition is calculated as follows: % Inhibition is equal to the [Fluorescenceplus inhibitor−Fluorescencebackground] divided by the [Fluorescenceminus inhibitor−Fluorescencebackground]. MMP8

[2] = Solubility in 0.1M phosphate buffer, pH 7.4; format: physicochemical; conditions: aqueous buffer, thermodynamic from solid, pH 7.4, 20° C.
Description: Protocol for Determination of Solubility
The test compound (1 mg) was weighed into a 2 mL glass vial with a screw cap and 0.1M phosphate buffer pH 7.4. (1.00 mL) was added. The sample vial was then sonicated for about 10 minutes and then placed on a shake board overnight at 20° C. The contents of the sample vial were then filtered through a Millipore Millex-LH 0.45 μm filter into a new 2 mL glass vial to give a clear solution. The clear solution (40 μL) was transferred to a new 2 mL glass vial and diluted with 0.1M phosphate buffer, pH 7.4 (960 μL).
A standard calibration curve for each particular test compound was established using solutions of known concentration. These solutions of known concentration were normally chosen to have concentrations of ˜10 μg/mL and ˜50 μg/mL. They were prepared by dissolving a known weight of the compound in 99.5% ethanol (500 μL) and then sonicating for one minute if necessary. If the compound was still not completely dissolved, DMSO (500 μL) was added and the mixture sonicated for an additional one minute. The resulting solution was then diluted to the appropriate volume with a mixture of acetonitrile/100 mM ammonium acetate pH 5.5 20-50/80-50. If necessary, a further, more dilute, standard solution was prepared by dilution.

[3] = molecular target: T2, Recombinant human MMP9 catalytic domain (Homo sapiens, UniProt P14780); test: MMP9 isolated enzyme assay; format: biochemical; conditions: read-out: hMMP9 IC50
T2 sequence (P14780 with tags, fused parts or gaps DEL216-390 limits assumed): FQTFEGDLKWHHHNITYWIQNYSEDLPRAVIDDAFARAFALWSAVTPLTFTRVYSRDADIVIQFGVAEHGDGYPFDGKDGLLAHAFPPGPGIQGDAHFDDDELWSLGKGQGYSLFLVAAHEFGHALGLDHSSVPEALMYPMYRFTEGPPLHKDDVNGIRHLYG
Description: Recombinant human MMP9 catalytic domain was expressed and then purified by Zn chelate column chromatography followed by hydroxamate affinity column chromatography. The enzyme can be used to monitor inhibitors of activity as follows: MMP9 (5 ng/ml final concentration) is incubated for 30 minutes at RT with the synthetic substrate Mca-Pro-Cha-Gly-Nva-His-Ala-Dpa-NH2 (5 μM) in assay buffer (0.1M “Tris-HCl”™ buffer, pH 7.3 containing 0.1M NaCl, 20 mM CaCl2, 0.020 mM ZnCl and 0.05% (w/v) “Brij 35”™ detergent) in the presence (10 concentrations) or absence of inhibitors. Activity is determined by measuring the fluorescence at λex 320 nm and λem 405 nm. Percent inhibition is calculated as follows: % Inhibition is equal to the [Fluorescenceplus inhibitor−Fluorescencebackground] divided by the [Fluorescenceminus inhibitor−Fluorescencebackground]. MMP14
A protocol for testing against other matrix metalloproteinases, including MMP9, using expressed and purified pro MMP is described, for instance, by C. Graham Knight et al., (1992) FEBS Lett., 296(3), 263-266.

MMP8 = molecular target: T3, MMP8 (Homo sapiens, UniProt P22894); test: MMP8 isolated enzyme assay; format: biochemical; conditions: read-out: hMMP8 IC50
T3 construct: purchased Calbiochem
Description: Purified pro-MMP8 is purchased from Calbiochem. The enzyme (at 10 μg/ml) is activated by p-amino-phenyl-mercuric acetate (APMA) at 1 mM for 2.5 h, 35° C. The activated enzyme can be used to monitor inhibitors of activity as follows: MMP8 (200 ng/ml final concentration) is incubated for 90 minutes at 35° C. (80% H2O) with the synthetic substrate Mca-Pro-Cha-Gly-Nva-His-Ala-Dpa-NH2 (12.5 μM) in assay buffer (0.1M “Tris-HCl”™ buffer, pH 7.5 containing 0.1M NaCl, 30 mM CaCl2, 0.040 mM ZnCl and 0.05% (w/v) “Brij 35”™ detergent) in the presence (10 concentrations) or absence of inhibitors. Activity is determined by measuring the fluorescence at λex 320 nm and λem 405 nm. Percent inhibition is calculated as follows: % Inhibition is equal to the [Fluorescenceplus inhibitor−Fluorescencebackground] divided by the [Fluorescenceminus inhibitor−Fluorescencebackground]. MMP9

[4] = molecular target: T4, Recombinant human MMP14 catalytic domain (Homo sapiens, UniProt P50281); test: MMP14 isolated enzyme assay; format: biochemical; conditions: read-out: hMMP14 IC50
T4 construct: Recombinant human MMP14 catalytic domain; made in house
Description: Recombinant human MMP14 catalytic domain may be expressed and purified as described by Parkar A. A. et al, (2000), Protein Expression and Purification, 20, 152. The purified enzyme can be used to monitor inhibitors of activity as follows: MMP14 (10 ng/ml final concentration) is incubated for 60 minutes at room temperature with the synthetic substrate Mca-Pro-Cha-Gly-Nva-His-Ala-Dpa-NH2 (10 μM) in assay buffer (0.1M “Tris-HCl” (trade mark) buffer, pH 7.5 containing 0.1M NaCl, 20 mM CaCl2, 0.020 mM ZnCl and 0.05% (w/v) “Brij 35”™ detergent) in the presence (5 concentrations) or absence of inhibitors. Activity is determined by measuring the fluorescence at λex 320 nm and λem 405 nm. Percent inhibition is calculated as follows: % Inhibition is equal to the [Fluorescenceplus inhibitor−Fluorescencebackground] divided by the [Fluorescenceminus inhibitor−Fluorescencebackground].

plasma protein = test: Plasma protein binding by ultrafiltration; format: in vitro ADME; conditions: 10 μM
Description: Plasma protein binding was determined by ultrafiltration in an automated 96 well format assay. On each test occasion the plasma protein binding of a reference compound (budesonide) was monitored in parallel.
Test compounds (10 mM dissolved in DMSO) were added to plasma to a final concentration of 10 μM and equilibrated at room temperature for 10 minutes. 350 μL of the plasma was transferred to an ultrafiltration plate, Microcon-96 (10 kDa cutoff, Millipore). The ultrafiltration plate was centrifuged at 3000 G for 70 minutes at room temperature. After centrifugation, the concentration of the compounds in the obtained plasma water (the unbound fraction) was determined by LC-MS/MS using a 3-point calibration curve and compared to the concentration in the original spiked plasma.
The analyses were performed using a gradient chromatographic system with acetic acid/acetonitrile as mobile phases. The detection was done using a triple quadropole mass spectrometer, API3000 or API4000, from Applied Biosystems, with an electrospray interface.

T1 sequence (P39900 106-263 limits assumed): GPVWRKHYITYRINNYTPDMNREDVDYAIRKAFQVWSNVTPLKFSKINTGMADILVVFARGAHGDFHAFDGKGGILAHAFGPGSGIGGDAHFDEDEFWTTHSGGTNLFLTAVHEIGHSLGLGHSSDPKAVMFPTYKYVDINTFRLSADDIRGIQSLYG
T3 sequence (P22894 101-467): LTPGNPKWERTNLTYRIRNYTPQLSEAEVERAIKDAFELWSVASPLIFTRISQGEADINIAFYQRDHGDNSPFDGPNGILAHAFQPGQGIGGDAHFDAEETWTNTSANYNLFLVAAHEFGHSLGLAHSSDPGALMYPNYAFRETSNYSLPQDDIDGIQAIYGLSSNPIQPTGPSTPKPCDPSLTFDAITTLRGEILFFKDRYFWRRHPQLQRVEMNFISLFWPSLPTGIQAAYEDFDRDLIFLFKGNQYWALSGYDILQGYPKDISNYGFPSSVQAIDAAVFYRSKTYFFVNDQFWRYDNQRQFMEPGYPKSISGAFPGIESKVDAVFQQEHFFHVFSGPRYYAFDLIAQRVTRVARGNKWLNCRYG

| IC50 [1] [nM] | solubility [2] [µM] | IC50 [3] [nM] | IC50 (MMP8) [nM] | IC50 [4] [nM] | Protein binding (% free) (plasma protein) | Structure (SMILES) |
| --- | --- | --- | --- | --- | --- | --- |
| 5 | 41 (≈ 18.1 µg/mL) | 7 | 430 | > 10000 |  | C[C@]1(CS(=O)(=O)N2CC=C(C#Cc3ccc(C(F)(F)F)nc3)CC2)NC(=O)NC1=O [Example 5, (5S)-5-Methyl-5-({[4-{[6-(trifluoromethyl)pyridin-3-yl]ethynyl}-3,6-dihydropyridin-1(2H)-yl]sulfonyl}methyl)imidazolidine-2,4-dione] |
| 140 | 1600 (≈ 598 µg/mL) | 11200 | > 1000 | > 1000 |  | C[C@]1(CS(=O)(=O)N2CC=C(C#Cc3ccccn3)CC2)NC(=O)NC1=O [WO 02/074767, page 119, (5S)-5-methyl-5-({[4-(pyridin-2-ylethynyl)-3,6-dihydropyridin-1(2H)-yl]sulfonyl}-methyl)-imidazolidine-2,4-dione, reference compound] |
| 3 | 1300 (≈ 522 µg/mL) | 8 | 780 | > 10000 | 9.7 | CCc1ccc(C#CC2=CCN(S(=O)(=O)C[C@@]3(C)NC(=O)NC3=O)CC2)cn1 [Example 4, (5S)-5-({[4-[(6-Ethylpyridin-3-yl)ethynyl]-3,6-dihydropyridin-1-(2H)-yl]sulfonyl}methyl)-5-methylimidazolidine-2,4-dione] |
